Measurements as given in PMC5749684, “Tetrahydrocarbazoles are a novel class of potent P-type ATPase inhibitors with antifungal activity” (PLoS ONE, 2018).
≈ marks a conversion by molar mass, not a printed value.

Assays:
[1] = system: Saccharomyces cerevisiae ATCC 9763; experiment: Fungal growth inhibition, S. cerevisiae ATCC 9763; type: cell-based; conditions: ATCC9763, MIC defined as 50% growth inhibition, 24 h, n = 3–6
From the text: (§1) Fungal isolates were purchased from American Type Culture Collection, except for C. glabrata strain Cg003, which was kindly provided by Julius Subik, Comenius University in Bratislava, Slovak Republic. Cg003 is a clinical isolate, characterized to be resistant to fluconazole and itraconazole due to overexpression of the multidrug resistance efflux pumps Cdr1p and Cdr2p. Saccharomyces cerevisiae (ATCC 9763), Candida albicans (ATCC 90028), Candida albicans (SC5314), Candida glabrata (ATCC 90030), Candida glabrata (Cg003) and Candida krusei (ATCC 6258) were grown in Sabouraud broth (40 g/L D-glucose, 10 g/L peptone, pH 5.6) or YPD (10 g/L yeast extract, 20 g/L Bacto-peptone, 20 g/L glucose) medium to mid log phase, aliquoted into 20% (v/v) glycerol and cryopreserved as stocks at -80°C. For each growth assay, cells from these stocks were diluted in sterile water to OD600 = 0.025, which corresponds to a final starting inoculum of 0.5–2.5 x 10^5 CFU/mL. Growth assays were carried out by pipetting 3 μL compound dissolved in DMSO, 100 μL cell suspension and 97 μL 2 x RPMI media (20.8 g/L RPMI-1640 (Sigma-Aldrich catalog number R6504) 330 mM MOPS, 36 g/L glucose) into a microtiter plate and incubating for 24 h at 34°C, followed by OD measurement at 490 nm. The minimum inhibitory concentration (MIC) was defined as 50% growth inhibition of the microorganism as this measurement best represented the antifungal activity of the compounds. Standard errors were typically below 5%.

Candida albicans SC5314 = experiment: Fungal growth inhibition, C. albicans SC5314; type: cell-based; conditions: MIC defined as 50% growth inhibition, 24 h, n = 3–6
From the text: as §1

Candida krusei ATCC 6258 = experiment: Fungal growth inhibition, C. krusei; type: cell-based; conditions: Pichia kudriavzevii, ATCC6258; MIC defined as 50% growth inhibition, 24 h, n = 3–6
From the text: as §1

[2] = system: Candida glabrata ATCC 90030; experiment: Fungal growth inhibition, C. glabrata ATCC 90030; type: cell-based; conditions: Nakaseomyces glabratus, ATCC90030; MIC defined as 50% growth inhibition, 24 h, n = 3–6
From the text: as §1

Candida glabrata Cg003 = experiment: microbe, parasite or virus in culture; type: cell-based; conditions: Nakaseomyces glabratus, CG003, 24 h, read-out: Growth inhibition MIC Candida glabrata Cg003
Method: as §1, with “Cg003 is a clinical isolate, characterized to be resistant to fluconazole and itraconazole due to overexpression of the multidrug resistance efflux pumps Cdr1p and Cdr2p.” left out, “nm.” for “nm. The minimum inhibitory concentration (MIC) was defined as 50% growth inhibition of the microorganism as this measurement best represented the antifungal activity of the compounds. Standard errors were typically below 5%.”

HepG2 cells = experiment: Hep G2 viability assay (XTT); type: cell-based, human; conditions: HepG2 proliferation, 72 h, XTT
Method: In each well of a 96 well tissue culture plate (Greiner, catalog number GR-655180) 10,000 human hepatocyte HepG2 cells (Sigma-Aldrich, catalog number 85011430) were plated in 200 μL growth media (EMEM (Sigma-Aldrich, catalog number M2279), 2 mM L-Glutamine (Biological Industries, catalog number 03-020-1B), 1% non-essential amino acids (Biosera, catalog number XC-E1154/100), 10% fetal bovine serum (Biological Industries, catalog number BI-04-007-1A)), and incubated overnight at 37°C and 5% CO2. The following day, fresh growth media plus 2 μL compound in DMSO was added. The plate was incubated for a further 72 h at 37°C and 5% CO2. The media was replaced with 100 μL freshly prepared 0.5 mg/mL XTT sodium salt solution (Sigma-Aldrich, catalog number X4251) in RPMI-1640 (Sigma-Aldrich, catalog number R7509) with 3.83 μg/mL phenazine methosulfate (Sigma-Aldrich, catalog number P9625) and incubated 2–3 h at 37°C and 5% CO2. The color reaction was measured on a Victor X5 plate reader (Perkin-Elmer) at OD450, and the half maximal effective concentration (EC50) was calculated indicating the potency of tetrahydrocarbazole derivatives to inhibit HepG2 cell growth. Tamoxifen (Sigma-Aldrich, catalog number 85256) was used as a positive control compound while DMSO served as a negative control.

[3] = system: C. albicans (SC5314) cells; experiment: Time-kill assay; type: cell-based, Candida albicans; conditions: AMB 0.54 μM, VRC 2.8 μM, 6 and 8 20 μM
Method: C. albicans (SC5314) cells (1 x 10^5 CFU/mL) were incubated in 10 mL RPMI-1640 media at 30°C with gentle agitation (150 rpm) in the presence of amphotericin B (0.5 μM), voriconazole (2.8 μM) or tetrahydrocarbazole compound (20 μM). At the indicated time points (0, 3, 6, and 24 h), a 100 μL aliquot was removed, serially diluted (10 fold) in saline (0.9% NaCl), and 30 μL aliquots were spread on YPD agar. CFU were counted after incubation at 30°C for 48 h. C. albicans cells treated with DMSO (1%, v/v) served as a control. 50 CFU/mL was selected as the lower limit of quantitation.

C. albicans cells = experiment: Post-antifungal effect determination; type: cell-based, Candida albicans; conditions: 1 h exposure of C. albicans; AMB 0.54 μM, VRC 2.8 μM, 6 and 8 20 μM
Method: The post-antifungal effect (PAFE) of antifungal drugs on C. albicans was determined as described by others, with modifications. Briefly, 2 × 10^6 CFU/mL C. albicans cells were incubated in 1 mL RPMI-1640 media for 1 h at 30°C with gentle agitation in the presence of amphotericin B (0.54 μM), voriconazole (2.8 μM) or tetrahydrocarbazole compound (20 μM). Cells were subsequently washed in RPMI media 3 times by centrifugation (3 minutes, 5,000 x g) and finally re-suspended in 1 mL fresh RPMI medium and incubated at 30°C for 24 h. At various time intervals, a 100 μL aliquot was removed, serially diluted (10-fold) in saline (0.9% NaCl), and 30 μL aliquots were spread on YPD agar. The agar plates were incubated at 30°C for 48 h and the number of CFU/mL of culture was determined. C. albicans cells treated with DMSO (1%, v/v) served as a control. The number of CFU/mL obtained at specified time intervals was plotted against time (h) following compound removal. An increase in the CFU/mL of culture signifies growth and multiplication of yeast cells. The duration required for the antifungal drug-treated cells to recover from the inhibitory effect of the drug as indicated by an increase in CFU/mL of culture is defined as the PAFE.

Na^+,K^+-ATPase = system: Na^+,K^+-ATPase; parameters: method as in PMID 19289472; conditions: cited from earlier work
[4] = molecular target: T1, Saccharomyces cerevisiae Pma1 (Saccharomyces cerevisiae, UniProt P05030); experiment: ATP hydrolysis inhibition, S. cerevisiae Pma1; type: biochemical; conditions: ATP hydrolysis IC50 Saccharomyces cerevisiae Pma1, library hit compounds, n = 3
T1 construct: containing the full-length cDNA of the S. cerevisiae plasma membrane H^+-ATPase isoform PMA1; made in house; host or cells: Saccharomyces cerevisiae RS72
T1 sequence (P05030 whole entry, canonical isoform): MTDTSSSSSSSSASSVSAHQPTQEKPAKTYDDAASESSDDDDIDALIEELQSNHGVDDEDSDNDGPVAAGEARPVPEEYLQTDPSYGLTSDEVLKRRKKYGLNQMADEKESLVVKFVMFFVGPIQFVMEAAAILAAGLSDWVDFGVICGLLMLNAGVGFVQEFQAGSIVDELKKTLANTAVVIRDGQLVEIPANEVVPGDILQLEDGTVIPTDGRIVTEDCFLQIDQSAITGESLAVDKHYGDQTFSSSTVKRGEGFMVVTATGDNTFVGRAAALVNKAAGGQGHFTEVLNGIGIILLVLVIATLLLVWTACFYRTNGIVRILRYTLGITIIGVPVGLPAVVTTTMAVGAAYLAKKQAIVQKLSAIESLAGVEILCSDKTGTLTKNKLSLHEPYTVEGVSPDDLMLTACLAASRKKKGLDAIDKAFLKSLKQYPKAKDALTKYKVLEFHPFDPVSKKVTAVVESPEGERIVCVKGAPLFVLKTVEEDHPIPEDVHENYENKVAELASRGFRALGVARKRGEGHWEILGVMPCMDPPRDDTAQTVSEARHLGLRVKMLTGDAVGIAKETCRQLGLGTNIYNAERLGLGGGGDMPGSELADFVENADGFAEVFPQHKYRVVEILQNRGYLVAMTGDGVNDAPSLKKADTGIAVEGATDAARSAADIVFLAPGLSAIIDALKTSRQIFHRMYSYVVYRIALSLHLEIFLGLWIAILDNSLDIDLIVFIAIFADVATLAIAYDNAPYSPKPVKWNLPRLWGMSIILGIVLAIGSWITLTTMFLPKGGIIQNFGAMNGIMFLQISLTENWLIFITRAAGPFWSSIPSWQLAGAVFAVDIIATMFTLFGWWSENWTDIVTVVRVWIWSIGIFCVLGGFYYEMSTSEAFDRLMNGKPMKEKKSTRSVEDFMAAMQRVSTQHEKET
Method: The compound libraries were purchased from Enamine Ltd, Ukraine and Chembridge Corp, USA. Library screening was performed in 96 well plates format and each compound was screened in the ATP hydrolysis assay at a final concentration of 20 μM. DMSO was used to determine the maximal ATPase activity and a blank with ATP in absence of Pma1 protein was used to determine the level of spontaneous ATP hydrolysis and used to determine background level. The percentage of compound inhibition was evaluated by subtracting the blank from each data point and normalizing to maximal ATP hydrolysis activity. […] Pma1 inhibitory hit compounds (IC50 <20 μM) with antifungal activity on both S. cerevisiae and C. albicans (MIC <100 μM) were re-purchased and re-evaluated to confirm the potency and identity of the compound.
Plasma membranes containing Pma1 were isolated from Saccharomyces cerevisiae RS72 cells containing the full-length cDNA of the S. cerevisiae plasma membrane H^+-ATPase isoform PMA1 under control of the PMA1 promoter as described.
ATPase activity was determined by measuring the amount of liberated phosphate from ATP hydrolysis. The ATPase assay was performed in 96 well plates in a final reaction volume of 60 μL. 0.1–0.2 μg/well of DOC extracted SERCA membrane or the Na^+,K^+-ATPase was used, while 1–2.5 μg/well was used of the Pma1 membrane preparation. Reactions, including protein membrane preparation and various concentrations of exogenously added compounds, were conducted in the following buffers; Pma1 buffer: 17.5 mM MOPS-NaOH pH 7, 7 mM MgSO4, 44 mM KNO3 (vacuolar ATPase inhibitor), 22 mM NaN3 (mitochondrial ATPase inhibitor), 0.22 mM Na2MoO4 (acid phosphatase inhibitor); SERCA buffer: 9 mM MOPS-NaOH pH 7, 2.7 mM MgCl2, 0.1 mM CaCl2 and 72 mM KCl. Na^+,K^+-ATPase buffer: 30 mM MOPS-NaOH pH 7, 40 mM NaCl, 4 mM MgCl2 and 20 mM KCl. Reactions were initiated by the addition of Na-ATP to a final concentration of 2.5 mM (Pma1 and Na^+,K^+-ATPase) or 5 mM (SERCA), followed by 30 minutes incubation at 30°C. […] Absorption was measured at 860 nm after additional 30 minutes incubation at RT.

Saccharomyces cerevisiae = experiment: Fungal growth inhibition, S. cerevisiae (library hits, Table A); type: cell-based; conditions: MIC defined as 50% growth inhibition, n = 3, baker's yeast
Method: (§2) The compound libraries were purchased from Enamine Ltd, Ukraine and Chembridge Corp, USA. Library screening was performed in 96 well plates format and each compound was screened in the ATP hydrolysis assay at a final concentration of 20 μM. DMSO was used to determine the maximal ATPase activity and a blank with ATP in absence of Pma1 protein was used to determine the level of spontaneous ATP hydrolysis and used to determine background level. The percentage of compound inhibition was evaluated by subtracting the blank from each data point and normalizing to maximal ATP hydrolysis activity.
as §1, with “Cg003 is a clinical isolate, characterized to be resistant to fluconazole and itraconazole due to overexpression of the multidrug resistance efflux pumps Cdr1p and Cdr2p.” left out, “nm.” for “nm. The minimum inhibitory concentration (MIC) was defined as 50% growth inhibition of the microorganism as this measurement best represented the antifungal activity of the compounds. Standard errors were typically below 5%.”

Candida albicans = experiment: Fungal growth inhibition, C. albicans (library hits, Tables A and B); type: cell-based; conditions: ATCC90028, read-out: Growth inhibition MIC Candida albicans
Method: as §2
as §1, with “Cg003 is a clinical isolate, characterized to be resistant to fluconazole and itraconazole due to overexpression of the multidrug resistance efflux pumps Cdr1p and Cdr2p.” left out, “nm.” for “nm. The minimum inhibitory concentration (MIC) was defined as 50% growth inhibition of the microorganism as this measurement best represented the antifungal activity of the compounds. Standard errors were typically below 5%.”

[5] = system: HEK293 cells expressing the familial Alzheimer’s disease (FAD)-linked presenilin 1 mutation; parameters: method as in PMID 25514752; conditions: HEK293 cells expressing FAD-linked presenilin 1 mutation; cited from earlier work

Row | SMILES | MIC [1] [µM] | MIC (Candida albicans SC5314) [µM] | MIC (Candida krusei ATCC 6258) [µM] | MIC [2] [µM] | MIC (Candida glabrata Cg003) [µM] | IC50 [4] [µM] | MIC (Saccharomyces cerevisiae) [µM] | MIC (Candida albicans) [µM] | other results
1 | C[C@@H]1[C@H](O)[C@@H](C)/C=C/C=C/C=C/C=C/C=C/C=C/C=C/[C@H](O[C@@H]2O[C@H](C)[C@@H](O)[C@H](N)[C@@H]2O)C[C@@H]2O[C@](O)(C[C@@H](O)C[C@@H](O)[C@H](O)CC[C@@H](O)C[C@@H](O)CC(=O)O[C@H]1C)C[C@H](O)[C@H]2C(=O)O [AMB, amphotericin B, reference compound] | 0.02 ± 0.01 (≈ 0.0185 µg/mL) | 0.1 ± 0.04 (≈ 0.0924 µg/mL) | 0.44 ± 0.34 (≈ 0.407 µg/mL) | 0.1 ± 0.04 (≈ 0.0924 µg/mL) | 0.18 ± 0.08 (≈ 0.166 µg/mL) | – | – | – | EC50 (HepG2 cells): 0.69 ± 0.01 µM; EC50 (HepG2 cells; Homo sapiens, HepG2, 72 h): < 1 µM; Fungicidal or fungistatic activity in time-kill (in words) [3]: fungicidal after 3 h exposure; Post-antifungal effect (PAFE) (C. albicans cells): 7 h
2 | CC(=O)C1=C(O)[C@@H]2[C@H]3c4c[nH]c5cccc(c45)C[C@H]3C(C)(C)N2C1=O [CPA, cyclopiazonic acid] | – | – | – | – | – | – | – | – | Activity against Na^+,K^+-ATPase (in words) (Na^+,K^+-ATPase): inactivity
3 | Brc1ccc2[nH]c3c(c2c1)CCCC3NCCc1ccccc1 (centres unmarked) [Compound 1] | – | – | – | – | – | 18.2 ± 4.7 | 10 (≈ 3.69 µg/mL) | 20 (≈ 7.39 µg/mL) | Effect on enhanced calcium release from the endoplasmic reticulum (in words) [5]: reduce the enhanced calcium release
4 | Brc1ccc2[nH]c3c(c2c1)CCCC3NCc1ccccc1 (centres unmarked) [Compound 2] | – | – | – | – | – | 12.9 ± 3.2 | 12 (≈ 4.26 µg/mL) | 10 (≈ 3.55 µg/mL) | Effect on enhanced calcium release from the endoplasmic reticulum (in words) [5]: reduce the enhanced calcium release
5 | Cc1ccc2[nH]c3c(c2c1)CCCC3NCc1ccc(Cl)cc1 (centres unmarked) [Compound 3] | – | – | – | – | – | 14.8 ± 3.5 | 12 (≈ 3.9 µg/mL) | 5 (≈ 1.62 µg/mL) | –
6 | OC(Cn1cncn1)(Cn1cncn1)c1ccc(F)cc1F [FLC, fluconazole, reference compound] | 20.7 ± 8.68 (≈ 6.33 µg/mL) | 0.75 ± 0.48 (≈ 0.23 µg/mL) | 67.2 ± 27 (≈ 20.6 µg/mL) | 26.1 (≈ 8 µg/mL) | > 208 | – | – | – | EC50 (HepG2 cells; Homo sapiens): > 50 µM
7 | C[C@@H](c1ncncc1F)[C@](O)(Cn1cncn1)c1ccc(F)cc1F [VRC, voriconazole, reference compound] | 0.27 ± 0.19 (≈ 0.0943 µg/mL) | 0.03 ± 0.02 (≈ 0.0105 µg/mL) | 1.02 ± 0.7 (≈ 0.356 µg/mL) | 0.61 ± 0.28 (≈ 0.213 µg/mL) | 6.11 ± 2.64 (≈ 2.13 µg/mL) | – | – | – | EC50 (HepG2 cells; Homo sapiens): > 50 µM; Fungicidal or fungistatic activity in time-kill (in words) [3]: fungistatic activity after both 3 and 24 h of incubation; Post-antifungal effect (PAFE) (C. albicans cells): no significant delay in growth
